Series [1] deals with Retinoblastoma Protein pRb1. Description: Western blot of SiHa (HPV+) cell extracts. The conditions noted are these: 10 μM, 12 and 24 hours. The class given is cell-based, human. On the technique in general: A western blot detects proteins with antibodies after separation by electrophoresis.
Series [2] can be described thus: Pharmacokinetics of OC246 after single oral administration. Format: in vivo, female NMRI mice. The conditions noted are these: single oral 50 mg/kg. As to the method: Pharmacokinetics were assessed for OC246 after single oral (p.o.) administration in female NMRI mice. The compound OC246 was suspended at 50 mg/kg with Lipoid S100 and Myritol 318. Oral dose was 50 mg/kg, Final Concentration 10 mg/ml and Administration Volume 5.0 ml/kg. Blood samples were taken from three mice at individual time points after 0.25, 0.5, 1, 2, 4, 6, 8, 16, and 24 hours from administration, and analyzed using HPLC and mass-spectroscopic bioanalytical methods.
obs: observed; tmax: time point at Cmax; tlast: time at last quantifiable concentration; Cmax: maximum observed concentration; Clast: last quantifiable concentration; SE: standard error; AUClast: area under the concentration-time curve (AUC) calculated with trapezoidal rule between dosing time to the last measurement time point with a conc. value above the lower limit of quantification; AUCinf(obs): AUC calculated using the trapezoidal rule from 0 hours to infinity; AUC % extrapol: percentage of AUCinf(obs) that is due to the extrapolation from tlast to infinity; Rsq: goodness of fit for the determination λz in the terminal elimination phase; λz(Lambda_z): terminal elimination rate constant (of at least three last measured concentrations); t1/2: apparent terminal elimination half-life; CLobs: observed total (systemic) body clearance; Vz_obs: apparent volume of distribution based on AUClast and λz.

The next series deals with Hela (ATCC CCL-2). Description: Monolayer SRB assay, Hela. The class given is cell-based. As to conditions: Homo sapiens, 72 hrs, HPV18. As for the experimental part:
Various cell culture cells grown as monolayers are harvested from exponential growing cultures after treatment with various OC compounds at different concentrations. For this depending on the cell line, 10.000 to 30.000 cells were plated in 96-well flat-bottom microtiter plates. After a 24 h recovery period to allow cells to resume exponential growth, supernatants are discarded and 100 μl of culture medium (eight control wells/plate) or culture medium with the test compound are added by a liquid handling robotic system (Microlab® Starlet, Hamilton) and treatment continued for 72 hrs. Compounds are applied at 9 concentrations and eight wells/concentration). At least three independent experiments are performed. For SRB staining, cells are fixed with SRB01 (Tab. 5) for 1 h at 4° C. […] Optical density is assessed using a plate-reader (Sunrise, Tecan©) at 540 nm.
Concentrations required for half maximal response of the compound for cell growth inhibition (EC50) is calculated by non-linear regression (log[conc. of inhibitor] versus response (% T/C)) using the analysis software GraphPad Prism®, Prism 5 for windows, version 5.01 (GraphPad Software Inc., CA).
On the technique in general: In SRB staining, fixed cells bind dye roughly in proportion to their protein.

Another series deals with HPV16 E7 protein. Briefly: Western blot of E7 steady state level in CaSki cells. The conditions noted are these: 10 μM, up to 24 hours. The class given is cell-based. As for the experimental part:
B) For cells in cell culture the following procedure for the preparation of a total cell extract is used. Freshly seeded cells are grown for 24 hours to obtain 65-75% confluency (corresponds for CaSki cells to a plating of approx. 2×10^6 cells/10 cm Ø cell culture dish). Cell culture dishes with medium are out on ice for 5 minutes.
Lysed cells are scraped off the dish and transfers to microcentrifuge tubes, followed by 2×10 sec sonication to complete cell lysis at room temperature. The samples are heated at 96° C. for 10 min and centrifuged for 5 min at 12000 g at room temperature.
Endogenous E7 proteins are rigid, tightly folded molecules and are bound only transiently onto […] membranes during protein blotting procedures, in particular employing semidry methods. Thus, for protein blotting a buffer system containing 40% (v/v) of Methanol is used. These buffers tend to be unstable and therefore freshly prepared solutions need to be used. E7 antibodies are used in TBET at pH7.8. Under these conditions western blot transfer is not complete for most other proteins. If staining of different proteins of the same gel is done, the gel is divided prior to blotting, 40% Methanol is used in the transfer buffer for E7 and a transfer buffer containing 20% Methanol is used for most of the other markers. […]

Series [3] concerns patient derived SARS-2 Coronavirus (COVID19). Briefly: Inhibition of Sars-CoV2 replication by RNA qPCR analysis in Vero E6 cells. Format: cell-based, SARS-CoV-2. The conditions noted are these: 7.5 μM, supernatants 3 days after infection, n3. As to the method: Vero E6 cells were pre-incubated with the compounds at a concentration of 7.5 μM. The cells were infected with a patient derived SARS-2 Coronavirus (COVID19). Cellular supernatants were collected 3 days after infection and centrifuged at 2000 rpm for 5 min to remove detached cells. Viral RNAs were extracted using a MagNA Pure 24 system (Roche, Germany). SARS-CoV-2 RNA genomes were quantified with the TIB MOLBIOL LightMix Assay SARS-CoV-2 RdRP RTqPCR assay kit with RNA Process Control PCR Kit (Roche). The PCR reaction setup was performed using a BRAND LHS laboratory robot to ensure quality. The amplification was performed with a LightCycler 480 II (Roche). Method used in FIG. 10.
SARV-CoV-2 antiviral activity by of VSP034 and VSP035 (n3; number of repeat of the assay at each condition). The results are shown in for DMSO (1), 7.5 μM VSP034 (2) and 7.5 μM VSP035 (3), y axis logarithmic scale. […] (FIG. 9)

The subject of another series is SARS-CoV-2. Description: SARS-CoV-2/Huh7-EGFP HTS antiviral Assay (96-well). Format: cell-based. As to conditions: Severe acute respiratory syndrome coronavirus 2, Huh-7; sublethal dose of 10 μM, Huh7, n4.
Setting [4] is: female, NMRI, mouse, blood, mean.

Molecules are shown by their SMILES.

Experimental findings from patent publication US12630523B2, “Isoquinoline derivatives for use as antiviral and antitumour agents” (priority 2021, dated 2026) are described below.

A word on the half-life: it is how long it takes for the measured level to halve. A low value points to rapid decline. By Tmax is commonly meant the time at which the peak concentration occurs. As a reminder, the AUC(0-t) is exposure summed from dosing to a finite time, without extrapolation to infinity. Read a low AUC(0-t) as low exposure. For orientation: Cmax means the maximum level reached in the sampled fluid or tissue. For orientation: EC50 means the concentration that produces a half-maximal response. The inhibition is the drop in the measured response relative to a control, in per cent. High values mean strong suppression, low ones little suppression.

`Cc1ccc(CN2C(=O)c3ccccc3[C@H](C(=O)Nc3cccc(N4CCN(C)CC4)c3)[C@@H]2c2ccc(C(F)(F)F)cc2)cc1` [OC246, N-[3-(4-methylpiperazin-1-yl)phenyl]-2-[(4-methylphenyl)methyl]-1-oxo-3-[4-(trifluoromethyl)phenyl]-1,2,3,4-tetrahydroisoquinoline-4-carboxamide]: in series [1], the Rb protein signals entry is on record as “increase of Rb protein signals”. The half-life in series [2] (female, NMRI, mouse, blood) was 2.25 h. Further, the Tmax in series [2] (female, NMRI, mouse, blood, Lipoid S100 and Myritol 318, mean) was determined as 2 h. Moreover, in series [2] (setting [4]), the AUC(0-t) worked out at 11500 ng·h/mL and the highest concentration (Cmax) turned out to be 1740 ng/mL. In series [2] (female, NMRI, mouse, blood, mean, read-out: AUCinf(obs)), the AUC(0-inf) stood at 11500 ng·h/mL. For the same compound, the concentration at 24 h in series [2] (female, NMRI, mouse, blood, mean, read-out: Clast) came out at 5.18 ng/mL. In addition, in series [2], the “AUC% extrapol (obs)” value was 0.146%, the CLobs is 72.38 mL/min/kg, the Vz_obs was 14.073 L/kg and the “λz (terminal elimination rate constant)” value came out at 0.309 h⁻¹. The tlast in series [2] (mean) came out at 24.00 h. For the same compound, in the series on Hela (ATCC CCL-2), the EC50 amounted to 2680 nM.

Turning to `CN1CCC(CN2C(=O)c3ccccc3[C@H](C(=O)Nc3cccc(N4CCN(C)CC4)c3)[C@H]2c2ccc(C(F)(F)F)cc2)CC1` [VSP035, (3S,4S)-N-[3-(4-methylpiperazin-1-yl)phenyl]-2-[(1-methylpiperidin-4-yl)methyl]-1-oxo-3-[4-(trifluoromethyl)phenyl]-1,2,3,4-tetrahydroisoquinoline-4-carboxamide], the “HPV16 E7 protein level, time course” value with HPV16 E7 protein is reported as “steady decline over time”; in the series on HPV16 E7 protein (listed as Vsp035), “stable e7 reduction”. In series [3], the “reduction of virus load as determined by the PCR assay” value is listed as “one order of magnitude”. The compound also gave an inhibition at 10 µM in the series with SARS-CoV-2 of 72 ± 7.7%.
